Columns and labels:
[1] = Blood levels of contrast medium of four patient groups after oral administration (3 g, microcrystal suspension) with various additional treatments; conditions: sodium bicarbonate given orally with the contrast agent
Description: (§1) Suspension with Various Additional Treatments
(§2) III = 10 mg. of Metoclopramide i.v.; and
IV = g. of Sodium Bicarbonate)

clinical = conditions: human, in vivo, po
Description: as §1, §2
IV = g. of Sodium Bicarbonate)

[2] = human, in vivo
Description: as §1, §2
IV = g. of Sodium Bicarbonate)

| Compound | effect of simultaneous oral administration on resorption of the contrast agent [1] | half-life (clinical) | Cmax (clinical; Cmax (maximum concentration in blood)) | Tmax (clinical; time after administration at which the maximum blood level is attained) | resorption half life [2] | blood level within 30 minutes after ingestion, on the average, as % of the maximum value ([2]; 30 min) | Cmax (% of dose in total blood volume) ([2]; po) | tmax (time of maximum blood level) ([2]; po) |
| --- | --- | --- | --- | --- | --- | --- | --- | --- |
| O=C(O)O [sodium bicarbonate] | accelerates resorption of the contrast agent in a statistically significant manner | – | – | – | – | – | – | – |
| CCN(C(=O)CCC(=O)O)c1c(I)cc(I)c(NC)c1I [succinic acid mono-2,4,6-triiodo-3-methylamino-N-ethylanilide] | – | 2.3 ± 1.4 h | 114 ± 45 µg/mL | ≤ 0.9 h | 0.3 ± 0.1 h | 80% | 23 ± 8 % of Dose in Bl. Vol. | 2.2 ± 0.4 h |
